In US20180213790A1, “COMPOSITIONS AND USES THEREOF FOR CONTROLLING ECTOPARASITES IN NON-HUMAN MAMMALS” (priority 2015, published 2018):
Read-outs that look alike come from different tables or passages of the source.

Legend:
Rhipicephalus sanguineus = assay: in vitro coated-vial bioassay, activity against ticks; conditions: for mortality at 0.206 ppm / mortality at 0.617 ppm / mortality at 1.852 ppm / mortality at 5.556 ppm / mortality at 16.667 ppm / mortality at 50 ppm: Rhipicephalus sanguineus; for mortality at 0.206 ppm: D 0.000 ppm + F 0.206 ppm; for mortality at 0.617 ppm: D 0.000 ppm + F 0.617 ppm; for mortality at 1.852 ppm: D 0.000 ppm + F 1.852 ppm; for mortality at 5.556 ppm: D 0.000 ppm + F 5.556 ppm; for mortality at 16.667 ppm: D 0.000 ppm + F 16.667 ppm; for mortality at 50 ppm: D 0.000 ppm + F 50.000 ppm; for EC50 (ppm) Total amount of actives (ppm): total of dinotefuran and fipronil
Procedure: Tick susceptibility was assessed at 12, 24 and 48 hours post-exposure by evaluating mortality.

Ctenocephalides felis = conditions: for EC50 (ppm) Total amount of actives (ppm): total of dinotefuran and fipronil; for EC50 (ppm) Dinotefuran: amount of dinotefuran
Procedure: Insecticidal activity of dinotefuran, fipronil and dinotefuran/fipronil combinations at different ratios was evaluated using an in vitro coated-vial bioassay. Serial dilutions of test compounds, individually or in combination, were conducted with an acetone/triton solution+0.5% DMSO from a dinotefuran starting dose at 100 ppm and from a fipronil starting dose at 50 ppm. Vials were treated with dinotefuran, fipronil, dinotefuran/fipronil (tested at 6 ratios). Vials were capped and allowed to dry for at least 4 hours before the addition of 10 newly emerged (0-7 days old) unfed adult fleas (Ctenocephalides felis). Flea susceptibility was assessed at 6, 24 and 48 hours post-exposure by evaluating mortality. The EC50 and EC90 values were calculated based on Median-Effect Principle (Chu, 2006. Theoretical Basis, Experimental design, and Computerized Simulation of Synergism and Antagonism in drug Combination studies. Pharmacological reviews, 58(3):621-681) using COMPUSYN (version 1.0). EC50 and EC90 are defined as the amount of drugs, which causes respectively a 50% and 90% flea mortality. Combination indexes (CI) at EC50 and EC90 were calculated to characterize the interaction of each combination: synergism (CI<1), antagonism (CI>1) and additive effect (CI=1) and a combination index (CI) values were calculated at 48 hours of exposure to assess the potential for synergistic activity (Chou, Pharmacol. Rev. 2006, 58, 621-681; Chou, Drug combination studies and their synergy quantification using the Chou-Talalay method, Cancer. Res., 2010, 70: 440-446).

[1] = 12 H, read-out: Mortality (%) 12 H
[2] = 24 H, read-out: Mortality (%) 24 H
[3] = 48 H, read-out: Mortality (%) 48 H

Compound `N#Cc1nn(-c2c(Cl)cc(C(F)(F)F)cc2Cl)c(N)c1[S+]([O-])C(F)(F)F` (racemic) [D:F = 0:1, (RS)-5-amino-1-[2,6-dichloro-4-(trifluoromethyl)phenyl]-4-(trifluoromethylsulfinyl)-1H-pyrazole-3-carbonitrile] has a mortality at 0.206 ppm (Rhipicephalus sanguineus; [1]) of 0%, a mortality at 0.206 ppm (Rhipicephalus sanguineus; [2]) of 0% and a mortality at 0.206 ppm (Rhipicephalus sanguineus; [3]) of 0%. The mortality at 0.617 ppm (Rhipicephalus sanguineus; [1]) was 0%, the mortality at 0.617 ppm (Rhipicephalus sanguineus; [2]) was 0% and the mortality at 0.617 ppm (Rhipicephalus sanguineus; [3]) was 10%. It also gave a mortality at 1.852 ppm (Rhipicephalus sanguineus; [1]) of 0%, a mortality at 1.852 ppm (Rhipicephalus sanguineus; [2]) of 0% and a mortality at 1.852 ppm (Rhipicephalus sanguineus; [3]) of 0%. It also gave a mortality at 5.556 ppm (Rhipicephalus sanguineus; [1]) of 0%, a mortality at 5.556 ppm (Rhipicephalus sanguineus; [2]) of 20% and a mortality at 5.556 ppm (Rhipicephalus sanguineus; [3]) of 60%. The mortality at 16.667 ppm (Rhipicephalus sanguineus; [1]) was 60%, the mortality at 16.667 ppm (Rhipicephalus sanguineus; [2]) was 80% and the mortality at 16.667 ppm (Rhipicephalus sanguineus; [3]) was 100%. The mortality at 50 ppm (Rhipicephalus sanguineus; [1]) was 60%, the mortality at 50 ppm (Rhipicephalus sanguineus; [2]) was 100% and the mortality at 50 ppm (Rhipicephalus sanguineus; [3]) was 100%. The “EC50 (ppm) Fipronil” value (Rhipicephalus sanguineus; Table 5, ticks, amount of fipronil) was 3.77 ppm, the “EC50 (ppm) Total amount of actives (ppm)” value (Rhipicephalus sanguineus; Table 5, ticks) was 3.77 ppm and the “EC50 (ppm) Fiproml” value (Ctenocephalides felis; Table 2, fleas, amount of fipronil, alone or in the combination) was 13.83 ppm. The “EC50 (ppm) Total amount of actives (ppm)” value (Ctenocephalides felis; Table 2, fleas) was 13.83 ppm.

For `CN/C(=N\[N+](=O)[O-])NCC1CCOC1` (stereo not drawn) [D:F = 1:0, 2-methyl-l-nitro-3-[(tetrahydro-3-furanyl)methyl] guanidine], the “acaricidal activity against ticks (in words)” value (Rhipicephalus sanguineus) was “not active”, the “Mortality (%) 12 H” value (Rhipicephalus sanguineus; D 0.412 ppm + F 0.000 ppm, 12 H) was 0% and the “Mortality (%) 24 H” value (Rhipicephalus sanguineus; D 0.412 ppm + F 0.000 ppm, 24 H) was 0%. The “Mortality (%) 48 H” value (Rhipicephalus sanguineus; D 0.412 ppm + F 0.000 ppm, 48 H) was 0%, the “Mortality (%) 12 H” value (Rhipicephalus sanguineus; D 1.235 ppm + F 0.000 ppm, 12 H) was 0% and the “Mortality (%) 24 H” value (Rhipicephalus sanguineus; D 1.235 ppm + F 0.000 ppm, 24 H) was 0%. The “Mortality (%) 48 H” value (Rhipicephalus sanguineus; D 1.235 ppm + F 0.000 ppm, 48 H) was 0%, the “Mortality (%) 12 H” value (Rhipicephalus sanguineus; D 3.704 ppm + F 0.000 ppm, 12 H) was 0% and the “Mortality (%) 24 H” value (Rhipicephalus sanguineus; D 3.704 ppm + F 0.000 ppm, 24 H) was 0%. For the same compound, the “Mortality (%) 48 H” value (Rhipicephalus sanguineus; D 3.704 ppm + F 0.000 ppm, 48 H) was 0%, the “Mortality (%) 12 H” value (Rhipicephalus sanguineus; D 11.111 ppm + F 0.000 ppm, 12 H) was 0% and the “Mortality (%) 24 H” value (Rhipicephalus sanguineus; D 11.111 ppm + F 0.000 ppm, 24 H) was 0%. For the same compound, the “Mortality (%) 48 H” value (Rhipicephalus sanguineus; D 11.111 ppm + F 0.000 ppm, 48 H) was 0%, the “Mortality (%) 12 H” value (Rhipicephalus sanguineus; D 33.333 ppm + F 0.000 ppm, 12 H) was 0% and the “Mortality (%) 24 H” value (Rhipicephalus sanguineus; D 33.333 ppm + F 0.000 ppm, 24 H) was 0%. For the same compound, the “Mortality (%) 48 H” value (Rhipicephalus sanguineus; D 33.333 ppm + F 0.000 ppm, 48 H) was 0%, the “Mortality (%) 12 H” value (Rhipicephalus sanguineus; D 100.000 ppm + F 0.000 ppm, 12 H) was 0% and the “Mortality (%) 24 H” value (Rhipicephalus sanguineus; D 100.000 ppm + F 0.000 ppm, 24 H) was 0%. The “Mortality (%) 48 H” value (Rhipicephalus sanguineus; D 100.000 ppm + F 0.000 ppm, 48 H) was 0%, the “EC50 (ppm) Dinotefuran” value (Rhipicephalus sanguineus; Table 5, ticks, amount of dinotefuran) was greater than 100 ppm and the “EC50 (ppm) Total amount of actives (ppm)” value (Rhipicephalus sanguineus; Table 5, ticks) was 100 ppm. The “activity against fleas (in words)” value (Ctenocephalides felis) was “more potent than fipronil”, the “Mortality (%) 6 H” value (Ctenocephalides felis; D 0.412 ppm + F 0.000 ppm) was 0% and the “Mortality (%) 24 H” value (Ctenocephalides felis; D 0.412 ppm + F 0.000 ppm) was 10%. The “Mortality (%) 48 H” value (Ctenocephalides felis; D 0.412 ppm + F 0.000 ppm) was 0%, the “Mortality (%) 6 H” value (Ctenocephalides felis; D 1.235 ppm + F 0.000 ppm) was 0% and the “Mortality (%) 24 H” value (Ctenocephalides felis; D 1.235 ppm + F 0.000 ppm) was 10%. For the same compound, the “Mortality (%) 48 H” value (Ctenocephalides felis; D 1.235 ppm + F 0.000 ppm) was 20%, the “Mortality (%) 6 H” value (Ctenocephalides felis; D 3.704 ppm + F 0.000 ppm) was 0% and the “Mortality (%) 24 H” value (Ctenocephalides felis; D 3.704 ppm + F 0.000 ppm) was 20%. The “Mortality (%) 48 H” value (Ctenocephalides felis; D 3.704 ppm + F 0.000 ppm) was 50%, the “Mortality (%) 6 H” value (Ctenocephalides felis; D 11.111 ppm + F 0.000 ppm) was 10% and the “Mortality (%) 24 H” value (Ctenocephalides felis; D 11.111 ppm + F 0.000 ppm) was 30%. The “Mortality (%) 48 H” value (Ctenocephalides felis; D 11.111 ppm + F 0.000 ppm) was 60%, the “Mortality (%) 6 H” value (Ctenocephalides felis; D 33.333 ppm + F 0.000 ppm) was 0% and the “Mortality (%) 24 H” value (Ctenocephalides felis; D 33.333 ppm + F 0.000 ppm) was 10%. The “Mortality (%) 48 H” value (Ctenocephalides felis; D 33.333 ppm + F 0.000 ppm) was 80%, the “Mortality (%) 6 H” value (Ctenocephalides felis; D 100.000 ppm + F 0.000 ppm) was 40% and the “Mortality (%) 24 H” value (Ctenocephalides felis; D 100.000 ppm + F 0.000 ppm) was 80%. For the same compound, the “Mortality (%) 48 H” value (Ctenocephalides felis; D 100.000 ppm + F 0.000 ppm) was 90%, the “EC50 (ppm) Dinotefuran” value (Ctenocephalides felis; Table 2, fleas, alone or in the combination) was 8.05 ppm and the “EC50 (ppm) Total amount of actives (ppm)” value (Ctenocephalides felis; Table 2, fleas) was 8.05 ppm. The “EC50 (ppm) Dinotefuran” value (Ctenocephalides felis; Table 3 (head EC50, text says EC90), fleas) was 50.87 ppm.
